Drawing on patent publication US12145929B2, “Piperidine derivative and pharmaceutical composition for inhibiting autotaxin comprising same” (NEXTGEN BIOSCIENCE CO., LTD., priority 2021, dated 2024), this text covers inhibition for 17 molecules.

The target of this test is human Autotaxin protein (Homo sapiens, UniProt Q13822). The test is described as follows: Evaluation of inhibitory activity against human Autotaxin protein (18:1 LysoPC substrate, choline assay kit, absorbance 570 nm). The note with it: compound at 500 nM, 2 hours at 37° C. The format is biochemical. As to the method:
The solution of each synthesized compound (80 uM, 100% dimethyl sulfoxide) was sequentially diluted 5 times with dimethyl sulfoxide to prepare 6 concentrations. Each concentration of compound was diluted two-fold with 1× test buffer (50 mM Tris-Cl (pH 8.0), 5 mM KCl, 1 mM CaCl2), 1 mM MgCl2, 140 mM NaCl, deionized water, 1 mg/mL BSA), and 1 uL (1.25% dimethyl sulfoxide) of this diluted mixture was dispensed into each well of a 96 well clear round bottom plate. 9 uL of 1× test buffer were added to each well, followed by the addition of 20 uL of 240 nM human Autotaxin protein (buffer: 50 mM Tris-HCl, pH 8.0, with 150 mM sodium chloride and 20% glycerol). 10 uL of sonicated 360 uM 18:1 LysoPC (diluted with 1× test buffer) were added to each well. The reaction was performed for 2 hours in a shaking incubator at 37° C., and a secondary reaction mixture (choline assay kit, KA1662) (65 uL of 1× test buffer: 1 uL of choline oxidase: 1 uL of dye probe) was prepared. 60 uL of the secondary reaction mixture were added to the reaction plate and reacted on a shaker for 30 minutes. Using a SpectraMax iD3 microplate reader, the absorbance was measured at a wavelength of 570 nm. The percentage of inhibition activity (% inhibition) was calculated by the Formula: (1−Absorbancetestgroup/Absorbancecontrol group)×100.
As for `c1cc2c(cc1CNc1ncc(-c3nnc(N4CCC(c5cnn[nH]5)CC4)o3)cn1)OCO2` [Example 55, 5-(5-(4-(1H-1,2,3-triazol-5-yl)piperidin-1-yl)-1,3,4-oxadiazol-2-yl)-N-(benzo[d][1,3]dioxol-5-ylmethyl)pyrimidin-2-amine], the inhibition (in general, the percentage by which the read-out fell short of the control) at 0.5 µM was found to be 52%. Under `Clc1ccc(CNc2ncc(-c3nnc(N4CCC(c5cnn[nH]5)CC4)o3)cn2)cc1Cl` [Example 56, 5-(5-(4-(1H-1,2,3-triazol-5-yl)piperidin-1-yl)-1,3,4-oxadiazol-2-yl)-N-(3,4-dichlorobenzyl)pyrimidin-2-amine] stands 55.8%; under `Fc1cc(F)cc(CNc2ncc(-c3nnc(N4CCC(c5cnn[nH]5)CC4)o3)cn2)c1` [Example 57, 5-(5-(4-(1H-1,2,3-triazol-5-yl)piperidin-1-yl)-1,3,4-oxadiazol-2-yl)-N-(3,5-difluorobenzyl)pyrimidin-2-amine], 88.1%; under `Fc1ccc(CNc2ncc(-c3nnc(N4CCC(c5cnn[nH]5)CC4)o3)cn2)cc1F` [Example 58, 5-(5-(4-(1H-1,2,3-triazol-5-yl)piperidin-1-yl)-1,3,4-oxadiazol-2-yl)-N-(3,4-difluorobenzyl)pyrimidin-2-amine], 84%.

The molecule `Brc1cc(Br)cc(CNc2ncc(-c3nnc(N4CCC(c5cnn[nH]5)CC4)o3)cn2)c1` [Example 59, 5-(5-(4-(1H-1,2,3-triazol-5-yl)piperidin-1-yl)-1,3,4-oxadiazol-2-yl)-N-(3,5-dibromobenzyl)pyrimidin-2-amine] displayed an inhibition at 0.5 µM of 98.5%.

Consider `Cc1nc(NC2Cc3ccc(Br)cc3C2)ncc1-c1nnc(N2CCC(c3cnn[nH]3)CC2)o1` (centres unmarked) [Example 60, 5-(5-(4-(1H-1,2,3-triazol-5-yl)piperidin-1-yl)-1,3,4-oxadiazol-2-yl)-N-(5-bromo-2,3-dihydro-1H-inden-2-yl)-4-methylpyrimidin-2-amine], for which 0.5 µM produced 95.3% inhibition. Under `Cc1nc(NC2Cc3cc(Br)c(Br)cc3C2)ncc1-c1nnc(N2CCC(c3cnn[nH]3)CC2)o1` [Example 61, 5-(5-(4-(1H-1,2,3-triazol-5-yl)piperidin-1-yl)-1,3,4-oxadiazol-2-yl)-N-(5,6-dibromo-2,3-dihydro-1H-inden-2-yl)-4-methylpyrimidin-2-amine] stands 70%; under `c1ccc2c(c1)CC(Nc1ncc(CCCN3CCC(c4c[nH]nn4)CC3)cn1)C2` [Example 62, 5-(3-(4-(1H-1,2,3-triazol-4-yl)piperidin-1-yl)propyl)-N-(2,3-dihydro-1H-inden-2-yl)pyrimidin-2-amine], 70.2%. `Fc1cc2c(cc1F)CC(Nc1ncc(-c3nnc(N4CCC(N5CCOCC5)CC4)o3)cn1)C2` [Example 63, N-(5,6-difluoro-2,3-dihydro-1H-inden-2-yl)-5-(5-(4-morpholinopiperidin-1-yl)-1,3,4-oxadiazol-2-yl)pyrimidin-2-amine] gave an inhibition at 0.5 µM of 42.9%. Molecule `OC1CN(C2CCN(c3nnc(-c4cnc(NC5Cc6cc(F)c(F)cc6C5)nc4)o3)CC2)C1` [Example 64, 1-(1-(5-(2-((5,6-Difluoro-2,3-dihydro-1H-inden-2-yl)amino)pyrimidin-5-yl)-1,3,4-oxadiazol-2-yl)piperidin-4-yl)azetidin-3-ol] had an inhibition at 0.5 µM of 28.1%.

On to `NS(=O)(=O)C1CCN(c2nnc(-c3cnc(NC4Cc5cc(F)c(F)cc5C4)nc3)o2)CC1` [Example 65, 1-(5-(2-((5,6-Difluoro-2,3-dihydro-1H-inden-2-yl)amino)pyrimidin-5-yl)-1,3,4-oxadiazol-2-yl)piperidine-4-sulfonamide], for which at 0.5 µM the inhibition was 58%.

`O=c1[nH]nc(C2CCN(c3nnc(-c4cnc(NC5Cc6cc(F)c(F)cc6C5)nc4)o3)CC2)o1` [Example 66, 5-(1-(5-(2-((5,6-Difluoro-2,3-dihydro-1H-inden-2-yl)amino)pyrimidin-5-yl)-1,3,4-oxadiazol-2-yl)piperidin-4-yl)-1,3,4-oxadiazol-2(3H)-one] yielded an inhibition at 0.5 µM of 86.8%. `O=C(O)C1CCN(c2nnc(-c3cnc(NC4Cc5cc(F)c(F)cc5C4)nc3)o2)CC1` [Example 67, 1-(5-(2-((5,6-Difluoro-2,3-dihydro-1H-inden-2-yl)amino)pyrimidin-5-yl)-1,3,4-oxadiazol-2-yl)piperidine-4-carboxylic acid] had an inhibition at 0.5 µM of 30.9%. For the molecule `O=C(O)CC1CCN(c2nnc(-c3cnc(NC4Cc5cc(F)c(F)cc5C4)nc3)o2)CC1` [Example 68, 2-(1-(5-(2-((5,6-Difluoro-2,3-dihydro-1H-inden-2-yl)amino)pyrimidin-5-yl)-1,3,4-oxadiazol-2-yl)piperidin-4-yl)acetic acid], the inhibition at 0.5 µM stood at 87.1%. In turn, `O=C(NO)C1CCN(c2nnc(-c3cnc(NC4Cc5cc(F)c(F)cc5C4)nc3)o2)CC1` [Example 69, 1-(5-(2-((5,6-Difluoro-2,3-dihydro-1H-inden-2-yl)amino)pyrimidin-5-yl)-1,3,4-oxadiazol-2-yl)-N-hydroxypiperidine-4-carboxamide] yielded an inhibition at 0.5 µM of 66.8%.

`COC1(c2c[nH]nn2)CCN(c2nnc(-c3cnc(NC4Cc5cc(F)c(F)cc5C4)nc3)o2)CC1` [Example 70, N-(5,6-difluoro-2,3-dihydro-1H-inden-2-yl)-5-(5-(4-methoxy-4-(1H-1,2,3-triazol-4-yl)piperidin-1-yl)-1,3,4-oxadiazol-2-yl)pyrimidin-2-amine] came in with an inhibition at 0.5 µM of 97.9%. Take `Fc1cc2c(cc1F)CC(Nc1ncc(-c3nnc(N4CCC(F)(c5cnn[nH]5)CC4)o3)cn1)C2` [Example 71, N-(5,6-difluoro-2,3-dihydro-1H-inden-2-yl)-5-(5-(4-fluoro-4-(1H-1,2,3-triazol-5-yl)piperidin-1-yl)-1,3,4-oxadiazol-2-yl)pyrimidin-2-amine]: testing at 0.5 µM gave an inhibition of 98.6%.
